Measured values taken from PubChem BioAssay (NCI).
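Assay format: 96-well plates, 48-hour exposure. GI50 marks 50% less growth. TGI denotes the concentration required for complete inhibition of growth.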

Tests used:
Test in all cases: NCI tumour cell line growth inhibition, 48 h
[1] = tested on: U251 CNS
[2] = tested on: NCI-H522 lung
[3] = tested on: HOP-62 NSCLC
[4] = tested on: OVCAR-8 ovarian
[5] = tested on: UO-31 renal
[6] = tested on: NCI-H460 lung
[7] = tested on: NCI-H23 lung
[8] = tested on: 786-0 renal
[9] = tested on: MALME-3M melanoma
[10] = tested on: OVCAR-5 ovarian
[11] = tested on: OVCAR-3 ovarian
[12] = tested on: PC-3 prostate
[13] = tested on: COLO 205 colon
[14] = tested on: IGROV1 ovarian
[15] = tested on: SK-OV-3 ovarian
[16] = tested on: MDA-MB-231 breast
[17] = tested on: DU-145 prostate
[18] = tested on: EKVX NSCLC
[19] = tested on: MDA-MB-435
[20] = tested on: SF-268 CNS
[21] = tested on: MCF7 breast
[22] = tested on: CCRF-CEM leukemia
[23] = tested on: UACC-62 melanoma
[24] = tested on: SR leukemia
[25] = tested on: SW-620 colon
[26] = tested on: HT29 colon
[27] = tested on: UACC-257 melanoma
[28] = tested on: M14 melanoma
[29] = tested on: RPMI-8226 leukemia
[30] = tested on: CAKI-1 renal
[31] = tested on: HS 578T breast
[32] = tested on: OVCAR-4 ovarian
[33] = tested on: T-47D breast
[34] = tested on: SK-MEL-5 melanoma
[35] = tested on: RXF 393 renal
[36] = tested on: SF-295 CNS
[37] = tested on: SK-MEL-2 melanoma
[38] = tested on: BT-549 breast
[39] = tested on: MDA-MB-468 breast
[40] = tested on: KM12 colon
[41] = tested on: TK-10 renal
[42] = tested on: NCI/ADR-RES ovarian
[43] = tested on: HL-60(TB) leukemia
[44] = tested on: SF-539 CNS
[45] = tested on: SN12C renal
[46] = tested on: SNB-75 CNS
[47] = tested on: SNB-19 CNS
[48] = tested on: ACHN renal
[49] = tested on: HOP-92 NSCLC
[50] = tested on: A498 renal
[51] = tested on: NCI-H226 lung
[52] = tested on: HCT-15 colon
[53] = tested on: SK-MEL-28 melanoma
[54] = tested on: A549 NSCLC
[55] = tested on: MOLT-4 leukemia
[56] = tested on: HCT-116 colon
[57] = tested on: LOX IMVI melanoma
[58] = tested on: K-562 leukemia
[59] = tested on: HCC-2998 colon

Q: How did the GI50 [1] turn out when `OCCCNc1oc(-c2ccccc2)nc1[P+](c1ccccc1)(c1ccccc1)c1ccccc1` was run?
A: 2.67 µM

Q: And the TGI [1]?
A: 11.7 µM

Q: And the GI50 [2]?
A: 1.76 µM

Q: What about the TGI [2] of the same compound?
A: 7.82 µM

Q: What about the GI50 [3] of the same compound?
A: 3.25 µM

Q: And the TGI [3]?
A: 14.5 µM

Q: What about the GI50 [4] of the same compound?
A: 2.84 µM

Q: And the TGI [4]?
A: 10.7 µM

Q: And the GI50 [5]?
A: 15.7 µM

Q: And the TGI [5]?
A: 33.2 µM

Q: What about the GI50 [6] of the same compound?
A: 2.61 µM

Q: And the TGI [6]?
A: 11.3 µM

Q: What about the GI50 [7] of the same compound?
A: 3.02 µM

Q: And the TGI [7]?
A: 12.5 µM

Q: What about the GI50 [8] of the same compound?
A: 5.72 µM

Q: And the TGI [8]?
A: 20 µM

Q: What about the GI50 [9] of the same compound?
A: 1.57 µM

Q: And the TGI [9]?
A: 5.38 µM

Q: And the GI50 [10]?
A: 3.42 µM

Q: What about the TGI [10] of the same compound?
A: 15.5 µM

Q: And the GI50 [11]?
A: 1.44 µM

Q: And the TGI [11]?
A: 8.15 µM

Q: And the GI50 [12]?
A: 1.6 µM

Q: And the TGI [12]?
A: 9 µM

Q: And the GI50 [13]?
A: 1.26 µM

Q: What about the TGI [13] of the same compound?
A: 4.41 µM

Q: What about the GI50 [14] of the same compound?
A: 2.14 µM

Q: What about the TGI [14] of the same compound?
A: 7.01 µM

Q: What about the GI50 [15] of the same compound?
A: 2.34 µM

Q: And the TGI [15]?
A: 8.1 µM

Q: What about the GI50 [16] of the same compound?
A: 1.72 µM

Q: What about the TGI [16] of the same compound?
A: 4.84 µM

Q: And the GI50 [17]?
A: 3.86 µM

Q: What about the TGI [17] of the same compound?
A: 16.4 µM

Q: What about the GI50 [18] of the same compound?
A: 2.81 µM

Q: What about the TGI [18] of the same compound?
A: 13.6 µM

Q: And the GI50 [19]?
A: 2.26 µM

Q: What about the TGI [19] of the same compound?
A: 10 µM

Q: What about the GI50 [20] of the same compound?
A: 2.76 µM

Q: What about the TGI [20] of the same compound?
A: 11.8 µM

Q: What about the GI50 [21] of the same compound?
A: 1.95 µM

Q: What about the TGI [21] of the same compound?
A: 8.73 µM

Q: What about the GI50 [22] of the same compound?
A: 2.46 µM

Q: And the TGI [22]?
A: 13.5 µM

Q: And the GI50 [23]?
A: 1.38 µM

Q: What about the TGI [23] of the same compound?
A: 3.85 µM

Q: What about the GI50 [24] of the same compound?
A: 3.43 µM

Q: What about the TGI [24] of the same compound?
A: 16.1 µM

Q: And the GI50 [25]?
A: 3.29 µM

Q: What about the TGI [25] of the same compound?
A: 15.2 µM

Q: And the GI50 [26]?
A: 2.45 µM

Q: And the TGI [26]?
A: 13.3 µM

Q: And the GI50 [27]?
A: 1.98 µM

Q: What about the TGI [27] of the same compound?
A: 6.1 µM

Q: And the GI50 [28]?
A: 3.13 µM

Q: What about the TGI [28] of the same compound?
A: 17.7 µM

Q: What about the GI50 [29] of the same compound?
A: 0.41 µM

Q: And the TGI [29]?
A: 10.2 µM

Q: And the GI50 [30]?
A: 4.28 µM

Q: And the TGI [30]?
A: 21.7 µM

Q: What about the GI50 [31] of the same compound?
A: 2.25 µM

Q: What about the TGI [31] of the same compound?
A: 8.21 µM

Q: And the GI50 [32]?
A: 2.37 µM

Q: What about the TGI [32] of the same compound?
A: 15.7 µM

Q: What about the GI50 [33] of the same compound?
A: 1.26 µM

Q: And the TGI [33]?
A: 6.72 µM

Q: And the GI50 [34]?
A: 1.15 µM

Q: What about the TGI [34] of the same compound?
A: 2.38 µM

Q: What about the GI50 [35] of the same compound?
A: 1.23 µM

Q: And the TGI [35]?
A: 5.79 µM

Q: And the GI50 [36]?
A: 3.02 µM

Q: What about the TGI [36] of the same compound?
A: 10.5 µM

Q: And the GI50 [37]?
A: 2.49 µM

Q: What about the TGI [37] of the same compound?
A: 6.46 µM

Q: What about the GI50 [38] of the same compound?
A: 1.87 µM

Q: What about the TGI [38] of the same compound?
A: 6.03 µM

Q: What about the GI50 [39] of the same compound?
A: 0.337 µM

Q: And the TGI [39]?
A: 1.97 µM

Q: What about the GI50 [40] of the same compound?
A: 2.13 µM

Q: What about the TGI [40] of the same compound?
A: 7.15 µM

Q: What about the GI50 [41] of the same compound?
A: 3.62 µM

Q: And the TGI [41]?
A: 16.3 µM

Q: And the GI50 [42]?
A: > 100 µM

Q: What about the TGI [42] of the same compound?
A: > 100 µM

Q: What about the GI50 [43] of the same compound?
A: 0.586 µM

Q: What about the TGI [43] of the same compound?
A: 2.9 µM

Q: And the GI50 [44]?
A: 3.86 µM

Q: And the TGI [44]?
A: 14.4 µM

Q: What about the GI50 [45] of the same compound?
A: 2.61 µM

Q: And the TGI [45]?
A: 7.59 µM

Q: What about the GI50 [46] of the same compound?
A: 1.3 µM

Q: And the TGI [46]?
A: 5.38 µM

Q: What about the GI50 [47] of the same compound?
A: 2.15 µM

Q: And the TGI [47]?
A: 7.25 µM

Q: What about the GI50 [48] of the same compound?
A: 10.2 µM

Q: What about the TGI [48] of the same compound?
A: 24.8 µM

Q: And the GI50 [49]?
A: 1.24 µM

Q: And the TGI [49]?
A: 5.68 µM

Q: And the GI50 [50]?
A: 10.4 µM

Q: What about the TGI [50] of the same compound?
A: 23 µM

Q: And the GI50 [51]?
A: 2.44 µM

Q: And the TGI [51]?
A: 9.8 µM

Q: What about the GI50 [52] of the same compound?
A: 13.7 µM

Q: What about the TGI [52] of the same compound?
A: 28.1 µM

Q: And the GI50 [53]?
A: 2.09 µM

Q: And the TGI [53]?
A: 11 µM

Q: And the GI50 [54]?
A: 5.68 µM

Q: What about the TGI [54] of the same compound?
A: 20.3 µM

Q: And the GI50 [55]?
A: 3.01 µM

Q: And the TGI [55]?
A: 12.1 µM

Q: What about the GI50 [56] of the same compound?
A: 2.52 µM

Q: What about the TGI [56] of the same compound?
A: 15.9 µM

Q: What about the GI50 [57] of the same compound?
A: 3.12 µM

Q: And the TGI [57]?
A: 12.2 µM

Q: And the GI50 [58]?
A: 1.46 µM

Q: And the TGI [58]?
A: 11.7 µM

Q: What about the GI50 [59] of the same compound?
A: 2.95 µM

Q: And the TGI [59]?
A: 12.8 µM
